Test results taken from US20210299134A1, “TREATMENT OF B CELL MALIGNANCIES” (MEI Pharma, Inc., priority 2018, published 2021).
Marks after values point to notes of the source that are not given here.

What was measured:
[1] = test system: murine B-cell tumors; experiment: Tumor exposure and retention (FIGS. 3 and 4); format: in vivo
[2] = Plasma levels >IC90 and plasma versus tissue levels on intermittent dosing (FIGS. 6A-6B); format: in vivo, human; settings: FIG. 6A
Source text: There is also evidence pointing to a role for the PI3K pathway in T lymphocytes, which may explain these immune dysregulations. For example, in mice, genetic inactivation of p110δ results in a decrease of the function of regulatory T-cells (TREGs), a subset population of T-cells. […] In some instances, PI3K5 inhibition results in various immune-mediated toxicities such as enterocolitis and skin toxicity due to TREG suppression, as well as infections due to suppression of B-cells and effector T-cells. In some instances, treatment regimens with small molecule PI3K5 delta (or PI3K5) inhibitors on an intermittent dosing schedule (IS) are used. However, in certain instances, progression of disease is observed in subjects who are treated for B-cell malignancies, including chronic lymphocytic leukemia (CLL) and lymphomas with small molecule PI3K5 inhibitors (e.g., parsaclisib (INCB050465)) on an IS dosing regimen (see FIG. 6B). […] In some embodiments, the methods of treatment and dosing regimens and schedules described herein provide an efficacious and tolerable treatment of cancer. In some embodiments, the methods of treatment and dosing regimens and schedules described herein improve the frequency, severity and time to onset of the adverse events (AEs) associated with PI3K delta inhibitors. […]

[3] = test system: patients with FL or CLL/SLL; experiment: Phase 1b study: adverse events of special interest (AESI) on IS or CS; format: in vivo, human
Source text: In some instances, severe cases of enterocolitis, rash, and transaminitis have been reported in a Phase 1b clinical study of Compound A35 in patients with B-cell malignancies. In some instances, the onset of severe immune-related toxicities were reported after a period of CS dosing greater than 2 cycles. A lymphocytic infiltrate was reported in biopsies obtained from 1 patient with colitis and 1 patient with severe skin rash enrolled in the study. Furthermore, corticosteroid therapy has been reported as effective treatment approach in patients who developed diarrhea and rash in the study.
Following reports of delayed onset of cases of enterocolitis and rash in patients with Compound A35 initially administered once a day on a continuous dosing schedule (CS) in a 28-day cycle, an alternate dosing regimen using an intermittent dosing schedule (IS) was evaluated. The hypothesis was that an IS of PI3K5 inhibitors including Compound A35 could reduce the incidence or lower the severity of immune mediated adverse events (irAEs) by allowing recovery of TREGs during treatment-free intervals. Furthermore, it was hypothesized that the IS, by delivering a lower dose-intensity treatment approach, could be used to re-treat patients who have experienced delayed irAEs on the CS or IS and had recovered following treatment interruption and a short course of corticosteroids.
(§1) An intermittent dosing schedule on days 1-7 of a 28-day cycle was then evaluated after 2 cycles of daily dosing, or ≥3 cycles of daily dosing to reduce the risk of immune-related adverse events. For this analysis the intermittent schedule (IS) group is defined as patients who received Compound A35 alone or with rituximab daily for 2 cycles then switched to an intermittent schedule of 1 week per cycle, and the continuous schedule (CS) group is defined as patients who never switched to intermittent dosing or switched to intermittent dosing in cycle 4 or later cycles. Toxicity on CS is managed by a switch to IS.
The IS was developed to mitigate the risk of delayed toxicities observed with PI3K inhibitors and believed to be associated with on-target effect PI3K inhibition on immune cells.

[4] = test system: patients with relapsed B-cell malignancies; experiment: Phase 1b study: patient dispositions on intermittent or continuous schedule; format: in vivo, human; settings: Compound A35 alone arm
Description: as §1
In an ongoing Phase 1b study, Compound A35 was administered as a single agent in patients with relapsed B-cell malignancies. Patients have been enrolled in 3 cohorts: • Group A: 31 patients enrolled in a dose escalation phase of the study, with Compound A35 administered as a single agent at a dose of 60, 120, and 180 mg/day. In Group A, all patients began receiving Compound A35 on a CS. Approximately 1.5 years after the start of the study, 17 ongoing patients were switched to the IS to prevent delayed immune-mediated toxicities after various duration of exposure on the CS.
• Group B: 21 patients enrolled in an ongoing expansion cohort of up to 30 patients administered Compound A35 as a single agent at 60 mg/day on the CS for 2 cycles then switching to the IS in Cycle 3 (N=17) or later cycles (N=4).

SMILES: CN1CCC(c2ccccc2CC(C)(C)Nc2nc(N3CCOCC3)nc(-n3c(C(F)F)nc4ccccc43)n2)CC1 [Compound A35]
- retention in murine B-cell tumors compared to idelalisib ([1]; FIG. 4): preferential retention
- tumor exposure ([1]; over a 4-hour and 24-hour period (FIG. 3)): preferential tumor exposure
- plasma levels versus tissue levels [2]: plasma levels underestimate tissue levels
- AESI ALT/AST increased, All Grades, patients (%) ([3]; CLL/SLL, All (N = 17)): 2 (11.8%)
- AESI ALT/AST increased, Related Grade 3, patients (%) ([3]; CLL/SLL, All (N = 17)): 0%
- AESI Diarrhea/colitis, All Grades, patients (%) ([3]; CLL/SLL, All (N = 17)): 9 (52.9%)
- AESI Diarrhea/colitis, Related Grade 3, patients (%) ([3]; CLL/SLL, All (N = 17)): 4 (23.5%)
- AESI Mucositis, All Grades, patients (%) ([3]; CLL/SLL, All (N = 17)): 1 (5.9%)
- AESI Mucositis, Related Grade 3, patients (%) ([3]; CLL/SLL, All (N = 17)): 0%
- AESI Pneumonia/Pneumonitis, All Grades, patients (%) ([3]; CLL/SLL, All (N = 17)): 3 (17.6%)
- AESI Pneumonia/Pneumonitis, Related Grade 3, patients (%) ([3]; CLL/SLL, All (N = 17)): 3 (17.6%)
- AESI Rash, all types, All Grades, patients (%) ([3]; CLL/SLL, All (N = 17)): 6 (35.3%)
- AESI Rash, all types, Related Grade 3, patients (%) ([3]; CLL/SLL, All (N = 17)): 0%
- AESI ALT/AST increased, All Grades, patients (%) ([3]; CLL/SLL, CS Group (N = 9)): 2 (22.2%)
- AESI ALT/AST increased, Related Grade 3, patients (%) ([3]; CLL/SLL, CS Group (N = 9)): 0%
- AESI Diarrhea/colitis, All Grades, patients (%) ([3]; CLL/SLL, CS Group (N = 9)): 6 (66.7%)
- AESI Diarrhea/colitis, Related Grade 3, patients (%) ([3]; CLL/SLL, CS Group (N = 9)): 3 (33.3%)
- AESI Mucositis, All Grades, patients (%) ([3]; CLL/SLL, CS Group (N = 9)): 1 (11.1%)
- AESI Mucositis, Related Grade 3, patients (%) ([3]; CLL/SLL, CS Group (N = 9)): 0%
- AESI Pneumonia/Pneumonitis, All Grades, patients (%) ([3]; CLL/SLL, CS Group (N = 9)): 3 (33.3%)
- AESI Pneumonia/Pneumonitis, Related Grade 3, patients (%) ([3]; CLL/SLL, CS Group (N = 9)): 3 (33.3%)
- AESI Rash, all types, All Grades, patients (%) ([3]; CLL/SLL, CS Group (N = 9)): 4 (44.0%)
- AESI Rash, all types, Related Grade 3, patients (%) ([3]; CLL/SLL, CS Group (N = 9)): 0%
- AESI ALT/AST increased, All Grades, patients (%) ([3]; CLL/SLL, IS Group (N = 8)): 0%
- AESI ALT/AST increased, Related Grade 3, patients (%) ([3]; CLL/SLL, IS Group (N = 8)): 0%
- AESI Diarrhea/colitis, All Grades, patients (%) ([3]; CLL/SLL, IS Group (N = 8)): 3 (37.5%)
- AESI Diarrhea/colitis, Related Grade 3, patients (%) ([3]; CLL/SLL, IS Group (N = 8)): 1 (12.5%)
- AESI Mucositis, All Grades, patients (%) ([3]; CLL/SLL, IS Group (N = 8)): 0%
- AESI Mucositis, Related Grade 3, patients (%) ([3]; CLL/SLL, IS Group (N = 8)): 0%
- AESI Pneumonia/Pneumonitis, All Grades, patients (%) ([3]; CLL/SLL, IS Group (N = 8)): 0%
- AESI Pneumonia/Pneumonitis, Related Grade 3, patients (%) ([3]; CLL/SLL, IS Group (N = 8)): 0%
- AESI Rash, all types, All Grades, patients (%) ([3]; CLL/SLL, IS Group (N = 8)): 2 (25.0%)
- AESI Rash, all types, Related Grade 3, patients (%) ([3]; CLL/SLL, IS Group (N = 8)): 0%
- AESI ALT/AST increased, All Grades, patients (%) ([3]; FL, All (N = 40)): 9 (22.5%)
- AESI ALT/AST increased, Related Grade 3, patients (%) ([3]; FL, All (N = 40)): 3 (7.5%)
- AESI Diarrhea/colitis, All Grades, patients (%) ([3]; FL, All (N = 40)): 17 (42.5%)
- AESI Diarrhea/colitis, Related Grade 3, patients (%) ([3]; FL, All (N = 40)): 6 (15.0%)
- AESI Mucositis, All Grades, patients (%) ([3]; FL, All (N = 40)): 6 (15.0%)
- AESI Mucositis, Related Grade 3, patients (%) ([3]; FL, All (N = 40)): 1 (2.5%)
- AESI Pneumonia/Pneumonitis, All Grades, patients (%) ([3]; FL, All (N = 40)): 2 (5.0%)
- AESI Pneumonia/Pneumonitis, Related Grade 3, patients (%) ([3]; FL, All (N = 40)): 2 (5.0%)
- AESI Rash, all types, All Grades, patients (%) ([3]; FL, All (N = 40)): 12 (30.0%)
- AESI Rash, all types, Related Grade 3, patients (%) ([3]; FL, All (N = 40)): 4 (10.0%)
- AESI ALT/AST increased, All Grades, patients (%) ([3]; FL, CS Group (N = 25)): 6 (24.0%)
- AESI ALT/AST increased, Related Grade 3, patients (%) ([3]; FL, CS Group (N = 25)): 3 (12.0%)
- AESI Diarrhea/colitis, All Grades, patients (%) ([3]; FL, CS Group (N = 25)): 10 (40.0%)
- AESI Diarrhea/colitis, Related Grade 3, patients (%) ([3]; FL, CS Group (N = 25)): 5 (20.0%)
- AESI Mucositis, All Grades, patients (%) ([3]; FL, CS Group (N = 25)): 6 (24.0%)
- AESI Mucositis, Related Grade 3, patients (%) ([3]; FL, CS Group (N = 25)): 1 (4.0%)
- AESI Pneumonia/Pneumonitis, All Grades, patients (%) ([3]; FL, CS Group (N = 25)): 2 (8.0%)
- AESI Pneumonia/Pneumonitis, Related Grade 3, patients (%) ([3]; FL, CS Group (N = 25)): 2 (8.0%)
- AESI Rash, all types, All Grades, patients (%) ([3]; FL, CS Group (N = 25)): 11 (44.0%)
- AESI Rash, all types, Related Grade 3, patients (%) ([3]; FL, CS Group (N = 25)): 4 (16.0%)
- AESI ALT/AST increased, All Grades, patients (%) ([3]; FL, IS Group (N = 15)): 3 (20.0%)
- AESI ALT/AST increased, Related Grade 3, patients (%) ([3]; FL, IS Group (N = 15)): 0%
- AESI Diarrhea/colitis, Related Grade 3, patients (%) ([3]; FL, IS Group (N = 15)): 1 (6.7%)
- AESI Mucositis, All Grades, patients (%) ([3]; FL, IS Group (N = 15)): 0%
- AESI Mucositis, Related Grade 3, patients (%) ([3]; FL, IS Group (N = 15)): 0%
- AESI Pneumonia/Pneumonitis, All Grades, patients (%) ([3]; FL, IS Group (N = 15)): 0%
- AESI Pneumonia/Pneumonitis, Related Grade 3, patients (%) ([3]; FL, IS Group (N = 15)): 0%
- AESI Rash, all types, All Grades, patients (%) ([3]; FL, IS Group (N = 15)): 1 (6.7%)
- AESI Rash, all types, Related Grade 3, patients (%) ([3]; FL, IS Group (N = 15)): 0%
- AESI Diarrhea/colitis, All Grades, patients (%) ([3]; FL, IS Group (N = 15), excluded 1 subject with diarrhea after POD and 1 with diarrhea lasting one day with no dose change): 7 (46.7%)*
- immune-mediated toxicities with IS administration ([3]; IS versus CS): reduces the incidence of or delayed onset of immune-mediated toxicities
- period of CS dosing before onset of severe immune-related toxicities ([3]; Phase 1b study, patients with B-cell malignancies, CS dosing): greater than 2 cycles
- Discontinued therapy: Adverse event ([4]; CS Group (N = 25)): (16%)
- Discontinued therapy: Adverse event, number of patients ([4]; CS Group (N = 25)): 4
- Discontinued therapy: Progressive disease ([4]; CS Group (N = 25)): (20%)
- Discontinued therapy: Progressive disease, number of patients ([4]; CS Group (N = 25)): 5
- Discontinued therapy: Adverse event, number of patients ([4]; IS Group (N = 15)): 0
- Discontinued therapy: Progressive disease ([4]; IS Group (N = 15)): (20%)
- Discontinued therapy: Progressive disease, number of patients ([4]; IS Group (N = 15)): 3
